{"source": "patent US11191850B2", "about": "“Molecular probes for detection and imaging of pancreatic cancer” (Portland State University, priority 2016, dated 2021)", "key": {"[1]": {"test": "UV-Vis absorption and fluorescence spectroscopy", "assay_type": "physicochemical", "parameters": "Brightness: unit not given here", "settings": "for pH and solvent sensitivity of UV and fluorescence spectra: 10-15 μM, aqueous 10% DMSO with HCl, NaOH or pH 7.4 buffer, various solvents; for Extinction coefficient / λmax abs: 10% DMSO", "excerpt": "UV-Vis absorption and fluorescence spectroscopy. UV-Vis spectra were collected with a Cary 50 UV-Vis spectrophotometer at room temperature, using a 1-cm quartz cuvette. Fluorescence spectra were collected on a Cary Eclipse fluorescence spectrophotometer (Agilent Technologies). All absorbance spectra were reference corrected. Fluorescence spectra were corrected for the wavelength dependent response of the R928 photomultiplier tube using a manufacturer generated correction file. Quantum yields are reported as the average of multiple measurements using multiple references. Excitation emission matrices (EEMs) were collected over various spectral regions, using 5-nm step sizes for emission and 10-nm step sizes for excitation. The band pass for excitation and emission was 5 to 10 nm.\n(§1) Probes 1-13 were screened for pH and solvent sensitivity. Solvent sensitivity or dependence is at least partially attributable to differences in the equilibria between tautomeric forms of the compounds in the various solvents evaluated. The fluorophore concentrations ranged from 10-15 μM. Aqueous solutions contained 10% DMSO and 12.5 mM HCl, 12.5 mM NaOH, or pH 7.4 phosphate buffer."}, "[2]": {"test": "pKa of ionizable fluorophores (pH sensitivity screening)", "assay_type": "physicochemical", "settings": "aqueous solutions with 10% DMSO; Table 1", "protocol": "as §1"}, "[3]": {"settings": "pH 7.4 buffer, excited at 630 nm"}, "[4]": {"settings": "pH 7.4 buffer, seminaphthorhodamines"}, "[5]": {"settings": "pH 7.4 phosphate buffer, seminaphthorhodamines"}, "[6]": {"settings": "pH 7.4 phosphate buffer, methyl ether derivatives"}, "[7]": {"settings": "acidic solution pH 1.9, HCl, excited at 480 nm or 510 nm"}, "[8]": {"settings": "conjugate base, basic solution pH 12.1, NaOH"}, "[9]": {"settings": "conjugate base, pH 12.1, NaOH, excited at 630 nm"}, "[10]": {"settings": "conjugate acid, acidic solution pH 1.9, HCl, 15 μM"}, "[11]": {"settings": "pH 7.4 buffer, excited at 480 nm"}, "[12]": {"settings": "pH 7.4 buffer, methyl ether derivatives"}}, "note": "Several values for one entry are separate records, joined by “and”; a condition that tells them apart may be missing. Equal entries are not always repeated."}
{"compound": "COC(=O)c1ccccc1-c1c2ccc(=N)cc-2oc2c1ccc1cccc(N)c12.Cl", "note": "[Compound 9, 1-amino-7-(2-(methoxycarbonyl)phenyl)-10H-benzo[c]xanthen-10-iminium chloride]", "values": [{"measurement": "pH and solvent sensitivity of UV and fluorescence spectra", "setting": "[1]", "value": "not pH dependent, but were modestly solvent sensitive"}, {"measurement": "Quantum yield", "setting": "[1]; [3]", "value": 0.18, "unit": "%"}, {"measurement": "λmax em", "setting": "[1]; [3]", "value": 760, "unit": "nm"}, {"measurement": "Brightness", "setting": "[1]; [4]", "value": 25}, {"measurement": "Stokes shift", "setting": "[1]; [4]", "value": 184, "unit": "nm"}, {"measurement": "Extinction coefficient", "setting": "[1]; [5]", "value": 13872, "unit": "M⁻¹ cm⁻¹"}, {"measurement": "λmax abs", "setting": "[1]; [5]", "value": 576, "unit": "nm"}]}
{"compound": "COC(=O)c1ccccc1-c1c2ccc(=N)cc-2oc2c1ccc1cccc(OC)c12.O=C(O)O", "note": "[Compound 4, 1-methoxy-7-(2-(methoxycarbonyl)phenyl)-10H-benzo[c]xanthen-10-iminium bicarbonate]", "values": [{"measurement": "pH and solvent sensitivity of UV and fluorescence spectra", "setting": "[1]", "value": "insensitive to variations in pH or solvent"}, {"measurement": "Extinction coefficient", "setting": "[1]; [6]", "value": 21742, "unit": "M⁻¹ cm⁻¹"}]}
{"compound": "COC(=O)c1ccccc1-c1c2ccc(=N)cc-2oc2c1ccc1cccc(O)c12.Cl", "note": "[Compound 3, 1-hydroxy-7-(2-(methoxycarbonyl)phenyl)-10H-benzo[c]xanthen-10-iminium chloride]", "values": [{"measurement": "pH and solvent sensitivity of UV and fluorescence spectra", "setting": "[1]", "value": "exhibit pH as well as solvent sensitivity"}, {"measurement": "Brightness", "setting": "[1]; acidic solution pH 1.9, HCl", "value": 226}, {"measurement": "Stokes shift", "setting": "[1]; acidic solution pH 1.9, HCl", "value": 62, "unit": "nm"}, {"measurement": "Extinction coefficient", "setting": "[1]; acidic solution pH 1.9, HCl", "value": 19787, "unit": "M⁻¹ cm⁻¹"}, {"measurement": "λmax abs", "setting": "[1]; acidic solution pH 1.9, HCl", "value": 542, "unit": "nm"}, {"measurement": "Quantum yield", "setting": "[1]; [7]", "value": 1.14, "unit": "%"}, {"measurement": "λmax em", "setting": "[1]; [7]", "value": 604, "unit": "nm"}, {"measurement": "Extinction coefficient", "setting": "[1]; [8]", "value": 15589, "unit": "M⁻¹ cm⁻¹"}, {"measurement": "λmax abs", "setting": "[1]; [8]", "value": 621, "unit": "nm"}, {"measurement": "Brightness", "setting": "[1]; conjugate base, pH 12.1, NaOH", "value": 17}, {"measurement": "Stokes shift", "setting": "[1]; conjugate base, pH 12.1, NaOH", "value": 149, "unit": "nm"}, {"measurement": "Quantum yield", "setting": "[1]; [9]", "value": 0.11, "unit": "%"}, {"measurement": "λmax em", "setting": "[1]; [9]", "value": 770, "unit": "nm"}, {"measurement": "pKa", "setting": "[2]", "value": "6.67 +/− 0.11"}]}
{"compound": "COC(=O)c1ccccc1-c1c2ccc(=O)cc-2oc2c1ccc1cccc(N)c12", "note": "[Compound 7, methyl 2-(1-amino-10-oxo-10H-benzo[c]xanthen-7-yl)benzoate]", "values": [{"measurement": "pH and solvent sensitivity of UV and fluorescence spectra", "setting": "[1]", "value": "not affected by either solvent changes or by solution pH values above 2"}, {"measurement": "Extinction coefficient", "setting": "[1]; basic solution pH 12.1, NaOH, 15 μM", "value": "5664 M⁻¹ cm⁻¹ and 8300 M⁻¹ cm⁻¹"}, {"measurement": "Extinction coefficient", "setting": "[1]; [10]", "value": 3996, "unit": "M⁻¹ cm⁻¹"}, {"measurement": "λmax abs", "setting": "[1]; [10]", "value": 598, "unit": "nm"}, {"measurement": "Stokes shift", "setting": "[1]; conjugate acid, pH 1.9, HCl", "value": 172, "unit": "nm"}, {"measurement": "λmax em", "setting": "[1]; conjugate acid, pH 1.9, HCl", "value": 770, "unit": "nm"}]}
{"compound": "COC(=O)c1ccccc1C1=c2cc3c4c(c2Oc2c1ccc1cccc(O)c21)CCC[N+]=4CCC3", "note": "[Compound 11, 15-hydroxy-9-(2-(methoxycarbonyl)phenyl)-1,2,3,5,6,7-hexahydrobenzo[7,8]chromeno[2,3-f]pyrido[3,2,1-ij]quinolin-4-ium chloride]", "values": [{"measurement": "pH and solvent sensitivity of UV and fluorescence spectra", "setting": "[1]", "value": "exhibit pH as well as solvent sensitivity"}, {"measurement": "Brightness", "setting": "[1]; acidic solution pH 1.9, HCl", "value": 2314}, {"measurement": "Stokes shift", "setting": "[1]; acidic solution pH 1.9, HCl", "value": 39, "unit": "nm"}, {"measurement": "Extinction coefficient", "setting": "[1]; acidic solution pH 1.9, HCl", "value": 15134, "unit": "M⁻¹ cm⁻¹"}, {"measurement": "λmax abs", "setting": "[1]; acidic solution pH 1.9, HCl", "value": 585, "unit": "nm"}, {"measurement": "Quantum yield", "setting": "[1]; [7]", "value": 15.29, "unit": "%"}, {"measurement": "λmax em", "setting": "[1]; [7]", "value": 624, "unit": "nm"}, {"measurement": "Extinction coefficient", "setting": "[1]; [8]", "value": 14454, "unit": "M⁻¹ cm⁻¹"}, {"measurement": "λmax abs", "setting": "[1]; [8]", "value": 643, "unit": "nm"}, {"measurement": "Brightness", "setting": "[1]; conjugate base, pH 12.1, NaOH", "value": 43}, {"measurement": "Stokes shift", "setting": "[1]; conjugate base, pH 12.1, NaOH", "value": 127, "unit": "nm"}, {"measurement": "Quantum yield", "setting": "[1]; [9]", "value": 0.30, "unit": "%"}, {"measurement": "λmax em", "setting": "[1]; [9]", "value": 770, "unit": "nm"}, {"measurement": "pKa", "setting": "[2]", "value": "7.84 +/− 0.11"}]}
{"compound": "COC(=O)c1ccccc1-c1c2ccc(=[N+](C)C)cc-2oc2c1ccc1cccc(OC)c12.[Cl-]", "note": "[Compound 6, N-(1-methoxy-7-(2-(methoxycarbonyl)phenyl)-10H-benzo[c]xanthen-10-ylidene)-N-methylmethanaminium chloride]", "values": [{"measurement": "pH and solvent sensitivity of UV and fluorescence spectra", "setting": "[1]", "value": "insensitive to variations in pH or solvent"}, {"measurement": "Quantum yield", "setting": "[1]; [11]", "value": 9.32, "unit": "%"}, {"measurement": "λmax em", "setting": "[1]; [11]", "value": 606, "unit": "nm"}, {"measurement": "Brightness", "setting": "[1]; [12]", "value": 2094}, {"measurement": "Stokes shift", "setting": "[1]; [12]", "value": 38, "unit": "nm"}, {"measurement": "Extinction coefficient", "setting": "[1]; [6]", "value": 22470, "unit": "M⁻¹ cm⁻¹"}, {"measurement": "λmax abs", "setting": "[1]; [6]", "value": 568, "unit": "nm"}]}
{"compound": "COC(=O)c1ccccc1-c1c2ccc(=[N+](C)C)cc-2oc2c1ccc1cccc(O)c12", "note": "[Compound 5, N-(1-hydroxy-7-(2-(methoxycarbonyl)phenyl)-10H-benzo[c]xanthen-10-ylidene)-N-N-dimethyl iminium bicarbonate]", "values": [{"measurement": "pH and solvent sensitivity of UV and fluorescence spectra", "setting": "[1]", "value": "exhibit pH as well as solvent sensitivity"}, {"measurement": "Extinction coefficient", "setting": "[1]; acidic solution pH 1.9, HCl", "value": 20399, "unit": "M⁻¹ cm⁻¹"}, {"measurement": "Extinction coefficient", "setting": "[1]; [8]", "value": 17252, "unit": "M⁻¹ cm⁻¹"}, {"measurement": "λmax abs", "setting": "[1]; [8]", "value": 632, "unit": "nm"}, {"measurement": "Brightness", "setting": "[1]; conjugate base, pH 12.1, NaOH", "value": 29}, {"measurement": "Stokes shift", "setting": "[1]; conjugate base, pH 12.1, NaOH", "value": 148, "unit": "nm"}, {"measurement": "Quantum yield", "setting": "[1]; [9]", "value": 0.17, "unit": "%"}, {"measurement": "λmax em", "setting": "[1]; [9]", "value": 780, "unit": "nm"}]}
